These results are taken from patent US12679807B2 (MERCK SHARP & DOHME LLC, priority 2020, dated 2026).

pEC50: −log10 of the molar value.

For this assay, the target named is T1, GCS enzyme contained within Golgi preparations isolated from human A375 malignant melanoma skin cells (Homo sapiens, UniProt Q16739).
T1 construct: endogenous levels of GCS enzyme contained within Golgi preparations isolated from human A375 malignant melanoma skin cells; endogenous in cells; host or cells: A375 human malignant melanoma cells (crude Golgi preparation)
T1 sequence (Q16739 1-394): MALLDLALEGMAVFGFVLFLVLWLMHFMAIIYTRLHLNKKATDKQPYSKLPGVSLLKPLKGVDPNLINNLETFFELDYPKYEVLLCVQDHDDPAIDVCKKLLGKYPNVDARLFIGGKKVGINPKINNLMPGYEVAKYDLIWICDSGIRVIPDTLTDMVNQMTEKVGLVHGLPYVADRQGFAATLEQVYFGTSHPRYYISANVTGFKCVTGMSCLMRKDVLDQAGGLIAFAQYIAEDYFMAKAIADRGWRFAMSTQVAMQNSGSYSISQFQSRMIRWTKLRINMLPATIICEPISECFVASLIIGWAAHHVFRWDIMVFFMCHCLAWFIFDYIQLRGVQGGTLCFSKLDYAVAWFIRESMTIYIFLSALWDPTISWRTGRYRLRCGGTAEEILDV
The assay can be described thus: UDP-Glo glucosylceramide synthase biochemical assay. The settings on record: crude Golgi preparation from A375 cells; C6 ceramide and UDP-glucose substrates; 20 h incubation at room temperature; UDP detected by luminescence. The method, boiled down: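 Endogenous enzyme in A375 Golgi preparations (1.5 μg total protein) was preincubated 30 min with compound, then reacted 20 h at room temperature with UDP-glucose and ceramide.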

In turn, `Cc1nc(-c2ccc(-c3cccc4c3C(=O)N([C@H](C3CC3)C(C)(C)O)C4)cc2)no1` [Compound 88, (R)-2-(1-cyclopropyl-2-hydroxy-2-methylpropyl)-7-(4-(5-methyl-1,2,4-oxadiazol-3-yl)phenyl)isoindolin-1-one] showed a negative logarithm of the EC50 (pEC50) of 7.05. `Cc1cnc2c(c1/C=C/c1cccc3c1C(=O)N(C(C1CC1)C(C)(C)O)C3)OCO2` (single isomer, unassigned) [Compound 175, (R or S)-(E)-2-(1-Cyclopropyl-2-hydroxy-2-methylpropyl)-7-(2-(6-methyl-[1,3]dioxolo[4,5-b]pyridin-7-yl)vinyl)isoindolin-1-one] gave a pEC50 of 7.57. The value for `CCOc1ncccc1C(=O)Nc1cccc2c1C(=O)N([C@H](C)C(C)(C)O)C2` [Compound 138, (R)-2-ethoxy-N-(2-(3-hydroxy-3-methylbutan-2-yl)-3-oxoisoindolin-4-yl)nicotinamide] was 7.06.
